Biological target: T1, human IBAT (Homo sapiens, UniProt Q12908)
T1 construct: expressed in transfected cells; host or cells: Baby hamster kidney (BHK) cells, H14 cells
T1 sequence (Q12908 1-348): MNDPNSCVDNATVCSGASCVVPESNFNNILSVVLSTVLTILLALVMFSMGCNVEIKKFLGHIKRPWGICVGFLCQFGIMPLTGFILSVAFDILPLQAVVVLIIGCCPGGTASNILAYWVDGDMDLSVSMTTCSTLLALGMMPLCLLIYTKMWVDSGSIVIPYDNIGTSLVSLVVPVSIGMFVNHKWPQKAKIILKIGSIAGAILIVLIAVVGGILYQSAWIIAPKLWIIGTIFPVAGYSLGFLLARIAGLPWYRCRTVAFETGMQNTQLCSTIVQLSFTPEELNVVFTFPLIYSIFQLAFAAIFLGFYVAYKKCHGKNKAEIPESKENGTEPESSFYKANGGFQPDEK
Experiment: In vitro assay of compounds that inhibit IBAT-mediated uptake of [14C]-taurocholate (TC) in H14 cells
Format: cell-based
Conditions: Table 8, 1, 4 and 1, 5 benzothiazipines
Experimental: In Vitro Assay of Compounds that Inhibit IBAT-Mediated Uptake of [^14C]-Taurocholate (TC) in H14Cells
Baby hamster kidney cells (BHK) transfected with the cDNA of human IBAT (H14 cells) are seeded in 96 well Top-Count tissue culture plates at 60,000 cells/well for assays run within 24 hours of seeding, 30,000 cells/well for assays run within 48 hours, and 10,000 cells/well for assays run within 72 hours.
On the day of assay, the cell monolayer is gently washed once with […] (Dulbecco's Modified Eagle's medium with 4.5 g/L glucose plus 0.2% (w/v) fatty acid free bovine serum albumin ((FAF)BSA). To each well […] of a two-fold concentrate of test compound in assay buffer is added along with […] of […] [^14C]-taurocholate in assay buffer (final concentration of […] [^14C]-taurocholate). The cell culture plates are incubated 2 hours at 37° C. prior to gently washing each well twice with […] 4° C. Dulbecco's phosphate-buffered saline (PBS) containing 0.2% (w/v) (FAF)BSA. The wells are then gently washed once with […] 4° C. PBS without (FAF)BSA. To each […] of liquid, scintillation counting fluid is added. The plates are heat sealed and shaken for 30 minutes at room temperature prior to measuring the amount of radioactivity in each well on a Packard Top-Count instrument.

CCCCC1(CCCC)CS(=O)(=O)c2ccc(N(C)C)cc2[C@@H](c2ccc(OC)cc2)N1 (racemic) [Compound 2, 3.3-Dibutyl-2.3,4,5-tetrahydro-7-dimethylamino-5-(4′-methoxyphenyl)-1,4-benzothiazepine 1,1-dioxide]
IC50: 497 nM

From patent publication US20040077625A1, “Novel 1,4-benzothiazepine and 1,5-benzothiazepine compounds as inhibitors of apical sodium codependent bile acid transport abd taurocholate uptake” (priority 2001, published 2004)
